Key:
[1] = system: barnyardgrass (Echinochloa crus-galli L.); experiment: Test Example 1: foliar treatment, growth inhibition rate, barnyardgrass; type: in vivo; conditions: 31 g/ha active ingredient, visually observed 17th to 23rd day after application
Outline: (§1)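 Potted upland soil; compounds as wettable powders or emulsifiable concentrates diluted in water at 500 L/ha plus 0.1 vol % spreader, foliar-sprayed at defined leaf stages (rice 1.0–2.5, wheat 1.7–3.4, corn 2.0–3.5, greenfoxtail 1.0–3.0). Growth inhibition (0–100%) scored visually 17–23 days after application.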

corn = experiment: Test Example 2: soil application on the day after sowing, growth inhibition rate, corn; type: in vivo, Zea mays L.; conditions: 250 g/ha active ingredient, observed on 19th to 24th day
Outline: (§2)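 Pre-emergence soil treatment: one day post-sowing in upland soil, compound formulations at set active-ingredient rates were applied in 500 L/ha water. Visual rating of growth inhibition (0% untreated-equivalent to 100% complete kill) followed on days 19–24 after application.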

redroot pigweed = experiment: Test Example 2: soil application on the day after sowing, growth inhibition rate, redroot pigweed; type: in vivo, Amaranthus retroflexus L.; conditions: 250 g/ha active ingredient, observed on 19th to 24th day
Outline: as §2

rice (Oryza sativa L.) = experiment: Test Example 1: foliar treatment, growth inhibition rate, rice; type: in vivo; conditions: 31 g/ha active ingredient, visually observed 17th to 23rd day after application
Outline: (§3)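 Visual scoring of growth inhibition, 0% (untreated) to 100% (complete kill), on days 17–23 following post-emergence spray of formulated compound in water (500 L/ha, 0.1 vol % spreader); plants treated at set leaf stages, e.g. corn 2.0–3.5, wheat 1.7–3.4.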

wheat = experiment: Test Example 2: soil application on the day after sowing, growth inhibition rate, wheat; type: in vivo, Triticum spp.; conditions: 250 g/ha active ingredient, observed on 19th to 24th day
Outline: as §2

greenfoxtail = experiment: Test Example 2: soil application on the day after sowing, growth inhibition rate, greenfoxtail; type: in vivo, Setaria viridis L.; conditions: 250 g/ha active ingredient, observed on 19th to 24th day
Outline: as §2

corn (Zea mays L.) = experiment: Test Example 1: foliar treatment, growth inhibition rate, corn; type: in vivo; conditions: 31 g/ha active ingredient, visually observed 17th to 23rd day after application
Outline: as §3

prickly sida = experiment: Test Example 2: soil application on the day after sowing, growth inhibition rate, prickly sida; type: in vivo, Sida spinosa L.; conditions: 250 g/ha active ingredient, observed on 19th to 24th day
Outline: as §2

[2] = system: redroot pigweed (Amaranthus retroflexus L.); experiment: Test Example 1: foliar treatment, growth inhibition rate, redroot pigweed; type: in vivo; conditions: 31 g/ha active ingredient, visually observed 17th to 23rd day after application
Outline: as §3

[3] = system: prickly sida (Sida spinosa L.); experiment: Test Example 1: foliar treatment, growth inhibition rate, prickly sida; type: in vivo; conditions: 31 g/ha active ingredient, visually observed 17th to 23rd day after application
Outline: as §3

barnyardgrass = experiment: Test Example 2: soil application on the day after sowing, growth inhibition rate, barnyardgrass; type: in vivo, Echinochloa crus-galli L.; conditions: 250 g/ha active ingredient, observed on 19th to 24th day
Outline: as §2

soybean = experiment: Test Example 2: soil application on the day after sowing, growth inhibition rate, soybean; type: in vivo, Glycine max Merr.; conditions: 250 g/ha active ingredient, observed on 19th to 24th day
Outline: as §2

rice = experiment: Test Example 2: soil application on the day after sowing, growth inhibition rate, rice; type: in vivo, Oryza sativa L.; conditions: 250 g/ha active ingredient, observed on 19th to 24th day
Outline: as §2

crabgrass = experiment: Test Example 2: soil application on the day after sowing, growth inhibition rate, crabgrass; type: in vivo, Digitaria sanguinalis L.; conditions: 250 g/ha active ingredient, observed on 19th to 24th day
Outline: as §2

[4] = system: greenfoxtail (Setaria viridis L.); experiment: Test Example 1: foliar treatment, growth inhibition rate, greenfoxtail; type: in vivo; conditions: 31 g/ha active ingredient, visually observed 17th to 23rd day after application
Outline: as §3

[5] = system: velvetleaf (Abutilon theophrasti MEDIC.); experiment: Test Example 1: foliar treatment, growth inhibition rate, velvetleaf; type: in vivo; conditions: 31 g/ha active ingredient, visually observed 17th to 23rd day after application
Outline: as §1

wheat (Triticum spp.) = experiment: Test Example 1: foliar treatment, growth inhibition rate, wheat; type: in vivo; conditions: 31 g/ha active ingredient, visually observed 17th to 23rd day after application
Outline: as §3

[6] = system: crabgrass (Digitaria sanguinalis L.); experiment: Test Example 1: foliar treatment, growth inhibition rate, crabgrass; type: in vivo; conditions: 31 g/ha active ingredient, visually observed 17th to 23rd day after application
Outline: as §3

[7] = system: soybean (Glycine max Merr.); experiment: Test Example 1: foliar treatment, growth inhibition rate, soybean; type: in vivo; conditions: 31 g/ha active ingredient, visually observed 17th to 23rd day after application
Outline: as §3

velvetleaf = experiment: Test Example 2: soil application on the day after sowing, growth inhibition rate, velvetleaf; type: in vivo, Abutilon theophrasti MEDIC.; conditions: 250 g/ha active ingredient, observed on 19th to 24th day
Outline: as §2

| SMILES | Growth inhibition rate (%) Barnyardgrass [1] [%] | Growth inhibition rate (%) Corn (corn) [%] | Growth inhibition rate (%) redroot pigweed (redroot pigweed) [%] | Growth inhibition rate (%) Rice (rice (Oryza sativa L.)) [%] | Growth inhibition rate (%) Wheat (wheat) [%] | Growth inhibition rate (%) Greenfoxtail (greenfoxtail) [%] | Growth inhibition rate (%) Corn (corn (Zea mays L.)) [%] | Growth inhibition rate (%) Prickly sida (prickly sida) [%] | Growth inhibition rate (%) redroot pigweed [2] [%] | Growth inhibition rate (%) Prickly sida [3] [%] | Growth inhibition rate (%) Barnyardgrass (barnyardgrass) [%] | Growth inhibition rate (%) Soybean (soybean) [%] | Growth inhibition rate (%) Rice (rice) [%] | Growth inhibition rate (%) Crabgrass (crabgrass) [%] | Growth inhibition rate (%) Greenfoxtail [4] [%] | Growth inhibition rate (%) Velvetleaf [5] [%] | Growth inhibition rate (%) Wheat (wheat (Triticum spp.)) [%] | Growth inhibition rate (%) Crabgrass [6] [%] | Growth inhibition rate (%) Soybean [7] [%] | Growth inhibition rate (%) Velvetleaf (velvetleaf) [%] | further results |
| --- | --- | --- | --- | --- | --- | --- | --- | --- | --- | --- | --- | --- | --- | --- | --- | --- | --- | --- | --- | --- | --- |
| CCSC(=O)Oc1c(C(=O)c2ccc(S(C)(=O)=O)c(COCC(F)(F)F)c2Cl)cnn1C [compound 70] | 100 | 0 | 100 | 70 | 0 | 50 | 30 | 65 | 100 | 70 | 70 | 0 | 40 | 80 | 100 | 80 | 0 | 100 | 80 | 70 |  |
| CCSC(=O)Oc1c(C(=O)c2ccc(S(C)(=O)=O)c(OC(F)F)c2C)cnn1C [Compound No. 38, 5-(ethylthio)carbonyloxy-1-methylpyrazol-4-yl 3-(difluoromethoxy)-2-methyl-4-(methylsulfonyl)phenyl ketone] |  |  |  |  |  |  |  |  | 20 | 40 |  |  |  |  |  |  |  |  | 70 |  | pest or weed control at 31 g/ha ([1]; Echinochloa crus-galli): 80%; inhibition at 250 g/ha (corn; Zea mays): 0%; inhibition at 250 g/ha (redroot pigweed; Amaranthus retroflexus): 90%; pest or weed control at 31 g/ha (rice (Oryza sativa L.); Oryza sativa): 40%; inhibition at 250 g/ha (wheat; Triticum aestivum): 0%; inhibition at 250 g/ha (greenfoxtail; Setaria viridis): 70%; pest or weed control at 31 g/ha (corn (Zea mays L.); Zea mays): 0%; inhibition at 250 g/ha (prickly sida; Sida spinosa): 70%; inhibition at 250 g/ha (barnyardgrass; Echinochloa crus-galli): 90%; inhibition at 250 g/ha (soybean; Glycine max): 0%; inhibition at 250 g/ha (rice; Oryza sativa): 60%; inhibition at 250 g/ha (crabgrass; Digitaria sanguinalis): 95%; pest or weed control at 31 g/ha ([4]; Setaria viridis): 30%; pest or weed control at 31 g/ha ([5]; Abutilon theophrasti): 60%; pest or weed control at 31 g/ha (wheat (Triticum spp.); Triticum): 0%; pest or weed control at 31 g/ha ([6]; Digitaria sanguinalis): 0%; inhibition at 250 g/ha (velvetleaf; Abutilon theophrasti): 20% |
| CCSC(=O)Oc1c(C(=O)c2ccc(S(C)(=O)=O)c(C(=O)OC)c2Cl)cnn1C [compound 27] | 100 | 0 | 100 | 80 | 10 | 98 | 40 | 100 | 95 | 70 | 100 | 0 | 90 | 95 | 100 | 80 | 10 | 80 | 90 | 95 |  |
| CCSC(=O)Oc1c(C(=O)c2ccc(S(C)(=O)=O)c(CC#N)c2C)cnn1C [compound 83] | 100 | 0 | 90 | 80 | 0 | 40 | 0 | 70 | 80 | 70 | 80 | 0 | 50 | 95 | 100 | 95 | 0 | 100 | 95 | 40 |  |
| CCCOc1c(S(C)(=O)=O)ccc(C(=O)c2cnn(C)c2OC(=O)SCC)c1C [compound 66] | 95 | 0 | 95 | 60 | 0 | 40 | 0 | 90 | 95 | 75 | 80 | 0 | 90 | 90 | 100 | 95 | 10 | 98 | 98 | 40 |  |
| COC(=O)c1c(S(C)(=O)=O)ccc(C(=O)c2cnn(C)c2OC(=O)SC)c1C [Compound No. 3] | 95 | 0 | 100 | 100 | 0 | 60 | 60 | 95 | 90 | 90 | 60 | 40 | 95 | 100 | 100 | 95 | 50 | 95 | 95 | 70 |  |
| CCSC(=O)Oc1c(C(=O)c2ccc(S(C)(=O)=O)c(COC3CCOC3)c2C)cnn1C (centres unmarked) [compound 223] | 100 | 0 | 90 | 70 | 0 | 70 | 0 | 60 | 90 | 70 | 70 | 0 | 40 | 100 | 90 | 95 | 0 | 100 | 100 | 80 |  |

From patent US8030498B2, “Benzoylpyrazole compounds and herbicides containing them” (Ishihara Sangyo Kaisha, Ltd., priority 2005, dated 2011)
